Measured values reported in US8450331B2, “Thiophenyl-substituted 2-imino-3-methyl pyrrolo pyrimidinone compounds as BACE-1 inhibitors, compositions, and their use” (Merck Sharp & Dohme Corp., priority 2008, dated 2013).
Where two headings read alike, the source gives them in different places.

Experiments:
hERG = molecular target: T1, hERG (Homo sapiens, UniProt Q12809); assay: hERG rubidium efflux in hERG-CHO cells; assay type: cell-based; details: CHO cells that express hERG (hERG-CHO); for inhibition at 30 min, 1.5 uG/mL: pH 7.4, 1.5 uG/mL, read-out: HERG Rb efflux % Inhib 1.5 uG/mL; for inhibition at 30 min, 5 uG/mL: pH 7.4, 5 uG/mL, read-out: HERG Rb efflux % Inhib 5 uG/mL
T1 construct: expressed in transfected cells; host or cells: CHO cells (hERG-CHO)
T1 sequence (Q12809 whole entry): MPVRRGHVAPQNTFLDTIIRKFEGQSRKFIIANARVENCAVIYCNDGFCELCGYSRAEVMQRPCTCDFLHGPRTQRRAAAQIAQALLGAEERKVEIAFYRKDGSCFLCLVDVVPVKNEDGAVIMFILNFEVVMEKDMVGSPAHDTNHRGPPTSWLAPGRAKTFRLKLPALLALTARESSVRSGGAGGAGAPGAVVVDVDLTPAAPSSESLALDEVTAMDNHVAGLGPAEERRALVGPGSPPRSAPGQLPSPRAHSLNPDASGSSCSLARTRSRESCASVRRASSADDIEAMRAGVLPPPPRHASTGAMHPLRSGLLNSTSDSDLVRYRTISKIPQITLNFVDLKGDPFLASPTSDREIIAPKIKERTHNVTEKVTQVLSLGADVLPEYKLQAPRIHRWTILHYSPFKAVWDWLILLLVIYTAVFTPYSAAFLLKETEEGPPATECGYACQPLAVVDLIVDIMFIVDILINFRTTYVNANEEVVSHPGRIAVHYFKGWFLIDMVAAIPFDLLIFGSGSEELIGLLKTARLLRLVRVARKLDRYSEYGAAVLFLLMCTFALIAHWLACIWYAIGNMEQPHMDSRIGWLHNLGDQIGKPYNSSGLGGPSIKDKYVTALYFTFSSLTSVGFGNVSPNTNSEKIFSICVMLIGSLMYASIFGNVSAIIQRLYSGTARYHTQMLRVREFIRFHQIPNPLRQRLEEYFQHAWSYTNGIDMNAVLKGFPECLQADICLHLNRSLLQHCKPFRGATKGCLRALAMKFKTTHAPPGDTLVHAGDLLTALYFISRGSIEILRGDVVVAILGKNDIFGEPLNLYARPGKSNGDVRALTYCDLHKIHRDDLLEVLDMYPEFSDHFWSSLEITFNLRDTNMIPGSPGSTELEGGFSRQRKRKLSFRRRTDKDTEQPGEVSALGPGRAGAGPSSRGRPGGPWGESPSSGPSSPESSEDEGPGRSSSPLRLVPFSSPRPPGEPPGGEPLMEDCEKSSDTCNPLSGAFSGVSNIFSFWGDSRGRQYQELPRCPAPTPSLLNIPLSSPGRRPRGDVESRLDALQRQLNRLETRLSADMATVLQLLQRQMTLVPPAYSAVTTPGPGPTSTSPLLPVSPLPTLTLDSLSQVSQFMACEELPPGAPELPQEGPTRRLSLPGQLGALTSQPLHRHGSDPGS
Method: The base solution for the rubidium efflux studies was 144 mM NaCl, 20 mM HEPES-NaOH (pH 7.4), 2 mM CaCl2, 1 mM MgCl2, and 11 mM glucose. To prepare the rubidium loading buffer 5.4 mM RbCl was added. The wash buffer was supplemented with 5.4 mM KCl. The depolarization buffer was prepared by adding 40 mM KCl to the wash buffer. Drugs were added as 4× stocks containing 10% DMSO with a resulting final DMSO concentration of 2.5%.
hERG-CHO cells were plated into 96-well flat-bottom dishes and returned to the incubator for 24 hours. On the day of study, culture medium was removed and replaced by a HEPES-buffered saline solution containing 5.4 mM RbCl. Cells were returned to the tissue culture incubator for 3 hours to permit rubidium loading. […] Plates were then washed 3× with HEPES buffered saline containing 5.4 mM KCl and zero rubidium. After the 3rd wash cells were depolarized by the addition of 200 μl HEPES buffered saline containing 45.4 mM KCl. Cells were incubated in the depolarization solution for 5 minutes to permit efflux of rubidium. Supernatants were then collected and analyzed for rubidium content using automated flame atomic absorbance spectroscopy (ICR-8000, Aurora Biosciences). Percent inhibition was quantified based on a signal window defined by no block (vehicle) and full block with 10 μM dofetilide. All pipetting steps for the rubidium efflux screen were implemented using a pipetting robot capable of making simultaneous additions and removals from 96 wells (Quadra-96).

CYP2D6 = molecular target: T2, CYP2D6 (Homo sapiens, UniProt P10635); assay: CYP inhibition assay, human liver microsomes, CYP2D6; assay type: in vitro ADME
T2 construct: human liver microsomes (0.4 mg/ml); from tissue; host or cells: human liver microsomes
T2 sequence (P10635 whole entry): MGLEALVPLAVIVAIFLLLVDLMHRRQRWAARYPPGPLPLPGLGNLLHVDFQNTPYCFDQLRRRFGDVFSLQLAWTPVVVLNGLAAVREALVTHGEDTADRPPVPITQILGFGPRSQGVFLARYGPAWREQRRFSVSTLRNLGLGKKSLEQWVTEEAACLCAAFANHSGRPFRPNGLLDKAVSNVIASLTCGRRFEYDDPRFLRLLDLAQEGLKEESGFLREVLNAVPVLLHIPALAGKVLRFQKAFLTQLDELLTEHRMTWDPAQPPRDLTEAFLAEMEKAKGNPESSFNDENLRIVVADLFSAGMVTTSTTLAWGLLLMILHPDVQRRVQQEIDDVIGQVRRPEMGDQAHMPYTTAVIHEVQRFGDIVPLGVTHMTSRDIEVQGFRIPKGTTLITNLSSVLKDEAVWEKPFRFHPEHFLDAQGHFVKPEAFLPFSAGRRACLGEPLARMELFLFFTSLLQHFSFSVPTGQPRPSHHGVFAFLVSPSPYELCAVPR
Method: (§1) The test article was dissolved in methanol at a concentration of 5 mM. Dilutions of the stock solution were also prepared in methanol. The substrate concentration was kept near the Km value for each CYP reaction. The substrates were 100 μM phenacetin (O-deethylase reaction) for CYP1A2, 16 μM dextromethorphan (O-demethylase reaction) for CYP2D6, 100 μM testosterone (6β-hydroxylase reaction) and 5 μM midazolam (1′-hydroxylase reaction) for CYP3A4, 200 μM tolbutamide (4-hydroxylase reaction) for CYP2C9, 125 μM S-(+)-mephenyloin (4-hydroxylase reaction) for CYP2C19 and 5 μM paclitaxel (6[…]-hydroxylase reaction) for CYP2C8. The reactions were terminated by the addition of 35% perchloric acid to a final concentration of 4.5% (vol:vol). The concentrations of the metabolites formed from each substrate after incubation were determined by LC-MS/MS using a standard curve.
(§2) To evaluate metabolism/mechanism-based inhibition, the test article, at the stated concentrations (0 to 50 μM), was pre-incubated with human liver microsomes for 30 min at 37° C. in the presence of NADPH and in the absence of the substrates. After the pre-incubation step, the CYP substrates were added at the previously stated concentrations and the reactions were allowed to proceed as indicated in the previous paragraph.

CYP2C9 = molecular target: T3, CYP2C9 (Homo sapiens, UniProt P11712); assay: CYP inhibition assay, human liver microsomes, CYP2C9; assay type: in vitro ADME
T3 construct: human liver microsomes (0.4 mg/ml); from tissue; host or cells: human liver microsomes
T3 sequence (P11712 whole entry): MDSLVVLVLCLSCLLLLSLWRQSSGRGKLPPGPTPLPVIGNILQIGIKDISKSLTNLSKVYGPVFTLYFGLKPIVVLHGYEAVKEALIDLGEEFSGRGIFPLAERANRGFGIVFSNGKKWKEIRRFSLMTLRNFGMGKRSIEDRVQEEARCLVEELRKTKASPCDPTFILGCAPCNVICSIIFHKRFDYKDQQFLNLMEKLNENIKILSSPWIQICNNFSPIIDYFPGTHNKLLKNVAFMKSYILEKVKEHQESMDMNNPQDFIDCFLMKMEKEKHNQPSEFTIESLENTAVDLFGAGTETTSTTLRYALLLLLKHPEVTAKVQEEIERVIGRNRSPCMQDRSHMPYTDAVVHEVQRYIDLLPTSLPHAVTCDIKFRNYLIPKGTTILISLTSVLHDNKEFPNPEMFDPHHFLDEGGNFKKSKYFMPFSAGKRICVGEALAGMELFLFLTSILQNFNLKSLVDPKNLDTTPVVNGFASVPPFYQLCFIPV
Method: as §1, §2

CYP3A4 = molecular target: T4, CYP3A4 (Homo sapiens, UniProt P08684); assay: CYP inhibition assay, human liver microsomes, CYP3A4; assay type: in vitro ADME
T4 construct: human liver microsomes (0.4 mg/ml); from tissue; host or cells: human liver microsomes
T4 sequence (P08684 whole entry): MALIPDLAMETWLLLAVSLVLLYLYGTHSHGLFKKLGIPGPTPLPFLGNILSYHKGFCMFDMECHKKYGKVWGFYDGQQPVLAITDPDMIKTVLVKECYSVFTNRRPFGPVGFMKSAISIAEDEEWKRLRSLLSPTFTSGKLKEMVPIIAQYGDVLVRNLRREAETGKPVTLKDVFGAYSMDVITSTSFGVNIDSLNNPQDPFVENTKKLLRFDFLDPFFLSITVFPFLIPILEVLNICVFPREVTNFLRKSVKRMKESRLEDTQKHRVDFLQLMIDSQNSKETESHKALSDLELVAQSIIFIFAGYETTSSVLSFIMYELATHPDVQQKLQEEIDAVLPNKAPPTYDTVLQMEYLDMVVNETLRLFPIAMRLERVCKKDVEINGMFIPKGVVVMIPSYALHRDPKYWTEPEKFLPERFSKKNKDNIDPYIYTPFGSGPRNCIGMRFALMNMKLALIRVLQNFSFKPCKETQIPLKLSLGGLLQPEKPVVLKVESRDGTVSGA

[1] = molecular target: T5, soluble human BACE1 catalytic domain (Homo sapiens, UniProt P56817); assay: BACE1 HTRF FRET assay; assay type: biochemical; details: calculated from IC50 by Cheng-Prusoff; QSY7-APPswe-Eu substrate, pH 5.0
T5 construct: purified human BACE1 catalytic domain
T5 sequence (P56817 75-416 limits assumed): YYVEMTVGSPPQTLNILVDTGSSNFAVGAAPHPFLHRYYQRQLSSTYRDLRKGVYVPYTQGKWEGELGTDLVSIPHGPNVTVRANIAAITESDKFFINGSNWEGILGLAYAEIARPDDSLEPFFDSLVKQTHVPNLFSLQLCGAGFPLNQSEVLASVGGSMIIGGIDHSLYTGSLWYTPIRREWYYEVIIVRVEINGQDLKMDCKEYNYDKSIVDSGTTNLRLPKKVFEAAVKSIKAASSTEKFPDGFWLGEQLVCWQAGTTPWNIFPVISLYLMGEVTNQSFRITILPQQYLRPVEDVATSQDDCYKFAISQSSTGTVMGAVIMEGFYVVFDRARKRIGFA

BACE1 = molecular target: T6, BACE1 (Homo sapiens, UniProt P56817); assay: BACE inhibitor whole cell IC50 determination using HEK293-APPswe/lon cells (Aβ40); assay type: cell-based; details: 4 hours, Aβ40 in media, read-out: BACE1 A[…]40 IC50
T6 construct: endogenous in cells; host or cells: HEK293 stably transfected with human APP cDNA (Swedish and London mutations)
T6 sequence (P56817 46-501): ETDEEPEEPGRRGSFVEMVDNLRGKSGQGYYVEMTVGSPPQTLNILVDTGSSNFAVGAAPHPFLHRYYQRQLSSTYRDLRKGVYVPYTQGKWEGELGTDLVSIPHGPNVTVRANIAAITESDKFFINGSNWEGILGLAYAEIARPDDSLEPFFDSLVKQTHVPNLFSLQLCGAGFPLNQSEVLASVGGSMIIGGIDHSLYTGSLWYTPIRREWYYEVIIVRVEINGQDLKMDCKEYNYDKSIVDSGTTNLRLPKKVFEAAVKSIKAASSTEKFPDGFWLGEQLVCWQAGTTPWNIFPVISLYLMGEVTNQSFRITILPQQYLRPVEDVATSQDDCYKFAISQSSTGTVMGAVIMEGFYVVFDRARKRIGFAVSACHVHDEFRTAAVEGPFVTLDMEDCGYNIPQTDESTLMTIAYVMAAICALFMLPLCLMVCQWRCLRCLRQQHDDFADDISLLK

human liver Cathepsin D = molecular target: T7, human liver Cathepsin D (Homo sapiens, UniProt P07339); assay: Human Cathepsin D FRET assay; assay type: biochemical; details: selectivity with respect to Cathepsin D versus BACE1
T7 construct: Purified (>95%) human liver Cathepsin D; purchased Athens Research & Technology 16-12-030104; host or cells: human liver (tissue-derived)
T7 sequence (P07339 169-412 limits assumed): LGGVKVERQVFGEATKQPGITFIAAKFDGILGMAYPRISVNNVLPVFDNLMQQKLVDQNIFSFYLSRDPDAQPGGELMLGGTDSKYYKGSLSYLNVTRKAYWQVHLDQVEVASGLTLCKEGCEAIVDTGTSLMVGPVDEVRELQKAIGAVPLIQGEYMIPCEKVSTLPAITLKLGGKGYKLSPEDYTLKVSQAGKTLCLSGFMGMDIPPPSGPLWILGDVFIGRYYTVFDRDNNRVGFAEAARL
T7 sequence (P07339 65-161 limits assumed): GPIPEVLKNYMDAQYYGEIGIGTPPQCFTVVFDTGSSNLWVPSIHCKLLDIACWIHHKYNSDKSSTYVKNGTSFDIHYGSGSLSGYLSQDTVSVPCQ

[2] = 30 min pre-incubation with NADPH, read-out: CYP 2D6 IC50 pre
[3] = co-incubation, dextromethorphan substrate, read-out: CYP 2D6 IC50 co
[4] = 30 min pre-incubation with NADPH, read-out: CYP 2C9 IC50 pre
[5] = co-incubation, tolbutamide substrate, read-out: CYP 2C9 IC50 co
[6] = 30 min pre-incubation with NADPH, read-out: CYP 3A4 IC50 pre
[7] = co-incubation, read-out: CYP 3A4 IC50 co

Structure (SMILES)	inhibition at 30 min, 1.5 uG/mL (hERG) [%]	inhibition at 30 min, 5 uG/mL (hERG) [%]	IC50 (CYP2D6; [2]) [µM]	IC50 (CYP2D6; [3]) [µM]	IC50 (CYP2C9; [4]) [µM]	IC50 (CYP2C9; [5]) [µM]	IC50 (CYP3A4; [6]) [µM]	IC50 (CYP3A4; [7]) [µM]	Ki [1] [µM]	IC50 (BACE1) [µM]	CathD Selectivity (human liver Cathepsin D)
[H]/N=C1\N[C@@]2(c3ccc(C#N)s3)CN(c3nc(C)c(F)c(OC)n3)C[C@H]2C(=O)N1C [Example 1]	1	10	> 30	> 30	> 30	23.4					
COc1nc(N2C[C@H]3C(=O)N(C)C(=N)N[C@@]3(c3ccc(Cl)s3)C2)nc(C)c1F [Example 2]	4	22	> 30	> 30	22.8	20.3					
CCc1nc(N2C[C@H]3C(=O)N(C)C(=N)N[C@@]3(c3ccc(Cl)s3)C2)nc(OC)c1F [Example 4]	17	49	19	22	5.5	7.9	~30	> 30			
CCOc1nc(N2C[C@H]3C(=O)N(C)C(=N)N[C@@]3(c3ccc(Cl)s3)C2)nc(CC)c1F [Example 5]	10	22	12.9	13.5	4.2	7.3	23	> 30	0.11		
Cc1nc(N2C[C@H]3C(=O)N(C)C(=N)N[C@@]3(c3ccc(Cl)s3)C2)nc(C2CC2)c1F [Example 6]			21	> 30	19	19	12	16	0.049		
CCc1nc(N2C[C@H]3C(=O)N(C)C(=N)N[C@@]3(c3ccc(Cl)s3)C2)nc(C)c1F [Example 7]			> 30	> 30	> 30	> 30	> 30	> 30	0.024	0.285	
Cc1nc(N2C[C@H]3C(=O)N(C)C(=N)N[C@@]3(c3cc(C#N)cs3)C2)nc(C2CC2)c1F [Example 8]			> 30	> 30	> 30	> 30	> 30	> 30	0.031	0.21	82
Cc1nc(N2C[C@H]3C(=O)N(C)C(=N)N[C@@]3(c3ccc(C#N)s3)C2)nc(C2CC2)c1F [Example 9]									0.049	0.315	
CCCc1nc(N2C[C@H]3C(=O)N(C)C(=N)N[C@@]3(c3ccc(Cl)s3)C2)nc(OC)c1F [Example 10]	23	65	8.2	6.1	11.3	7.9	11.9	> 30			
COc1nc(N2C[C@H]3C(=O)N(C)C(=N)N[C@@]3(c3ccc(Cl)s3)C2)nc(C2CC2)c1F [Example 11]	26	72							0.151	1.32	
COc1nc(N2C[C@H]3C(=O)N(C)C(=N)N[C@@]3(c3ccc(Cl)s3)C2)nc(C2CC2)c1Cl [Example 12]	-7	34							0.03	0.561	
CCc1nc(N2C[C@H]3C(=O)N(C)C(=N)N[C@@]3(c3ccc(Cl)s3)C2)nc(C2CC2)c1Cl [Example 13]	2	46							0.157		
Cc1nc(N2C[C@H]3C(=O)N(C)C(=N)N[C@@]3(c3ccc(Cl)s3)C2)nc(C)c1F [Example 14]	14	6	> 30	> 30	> 30	> 30	> 30	> 30	0.047		
CCCc1nc(N2C[C@H]3C(=O)N(C)C(=N)N[C@@]3(c3ccc(Cl)s3)C2)nc(C)c1F [Example 15]	35	40							0.0088	0.147	20
CCCc1nc(N2C[C@H]3C(=O)N(C)C(=N)N[C@@]3(c3ccc(C#N)s3)C2)nc(C)c1F [Example 16]	44	28							0.019	0.135	16
Cc1nc(N2C[C@H]3C(=O)N(C)C(=N)N[C@@]3(c3ccc(C#N)s3)C2)nc(C)c1F [Example 19]	-5	3	> 30	> 30	> 30	> 30	~30	> 30	0.052	0.141	47
Cc1nc(N2C[C@H]3C(=O)N(C)C(=N)N[C@@]3(c3ccc(Cl)s3)C2)nc(C2CC2)c1Cl [Example 20]	-1	34							0.0096	0.215	62
